Assay results published in patent publication US20110039721A1, “METHOD FOR PREDICTION ABOUT CARCINOGENICITY OF SUBSTANCE IN RODENT” (Chemicals Evaluation and Research Institute, priority 2007, published 2011).

How the values were obtained:
[1] = tested on: mRNA expressed from the genes (A) to (D) in rat liver; assay: Behavior of genes (mRNA expression level, oligo-DNA microarray) in rat liver after 28-day oral administration; assay type: in vivo; conditions: rat liver, oral once daily 28 days; for Behavior of gene caused by administration of chemical substance, Gene No. 4846 / Behavior of gene caused by administration of chemical substance, Gene No. 4218 / Behavior of gene caused by administration of chemical substance, Gene No. 2026 / Behavior of gene caused by administration of chemical substance, Gene No. 6182 / Behavior of gene caused by administration of chemical substance, Gene No. 5600: (A); for Behavior of gene caused by administration of chemical substance, Gene No. 4846: Unigene Rn.144554, defined direction +; for Behavior of gene caused by administration of chemical substance, Gene No. 4218: Unigene Rn.167075, defined direction +, significant = 1.5 times or more or 1/1.5 or less of control; for Behavior of gene caused by administration of chemical substance, Gene No. 2026: Unigene Rn.167075, defined direction −; for Behavior of gene caused by administration of chemical substance, Gene No. 6182: Unigene Rn.5834, defined direction +; for Behavior of gene caused by administration of chemical substance, Gene No. 5600: Unigene Rn.9836, defined direction +; for Behavior of gene caused by administration of chemical substance, Gene No. 1494 / Behavior of gene caused by administration of chemical substance, Gene No. 2045 / Behavior of gene caused by administration of chemical substance, Gene No. 2203: (B); for Behavior of gene caused by administration of chemical substance, Gene No. 1494: Unigene Rn.1430, defined direction −; for Behavior of gene caused by administration of chemical substance, Gene No. 2045: Unigene Rn.19329, defined direction +; for Behavior of gene caused by administration of chemical substance, Gene No. 2203: Unigene Rn.21240, defined direction +; for Behavior of gene caused by administration of chemical substance, Gene No. 533 / Behavior of gene caused by administration of chemical substance, Gene No. 725 / Behavior of gene caused by administration of chemical substance, Gene No. 1163 / Behavior of gene caused by administration of chemical substance, Gene No. 4973 / Behavior of gene caused by administration of chemical substance, Gene No. 4095 / Behavior of gene caused by administration of chemical substance, Gene No. 1334 / Behavior of gene caused by administration of chemical substance, Gene No. 6620 / Behavior of gene caused by administration of chemical substance, Gene No. 6303 / Behavior of gene caused by administration of chemical substance, Gene No. 5878 / Behavior of gene caused by administration of chemical substance, Gene No. 1131 / Behavior of gene caused by administration of chemical substance, Gene No. 1562 / Behavior of gene caused by administration of chemical substance, Gene No. 1741 / Behavior of gene caused by administration of chemical substance, Gene No. 893 / Behavior of gene caused by administration of chemical substance, Gene No. 6026 / Behavior of gene caused by administration of chemical substance, Gene No. 154 / Behavior of gene caused by administration of chemical substance, Gene No. 1993 / Behavior of gene caused by administration of chemical substance, Gene No. 813 / Behavior of gene caused by administration of chemical substance, Gene No. 2494 / Behavior of gene caused by administration of chemical substance, Gene No. 2546 / Behavior of gene caused by administration of chemical substance, Gene No. 3776 / Behavior of gene caused by administration of chemical substance, Gene No. 3929 / Behavior of gene caused by administration of chemical substance, Gene No. 1119 / Behavior of gene caused by administration of chemical substance, Gene No. 6742 / Behavior of gene caused by administration of chemical substance, Gene No. 5634: (C); for Behavior of gene caused by administration of chemical substance, Gene No. 533: Unigene Rn.106184, defined direction +; for Behavior of gene caused by administration of chemical substance, Gene No. 725: Unigene Rn.108075, defined direction −; for Behavior of gene caused by administration of chemical substance, Gene No. 1163: Unigene Rn.11766, defined direction +; for Behavior of gene caused by administration of chemical substance, Gene No. 4973: Unigene Rn.118529, defined direction −; for Behavior of gene caused by administration of chemical substance, Gene No. 4095: Unigene Rn.119024, defined direction −; for Behavior of gene caused by administration of chemical substance, Gene No. 1334 / Behavior of gene caused by administration of chemical substance, Gene No. 6620: Unigene Rn.120914, defined direction +; for Behavior of gene caused by administration of chemical substance, Gene No. 6303: Unigene Rn.123063, defined direction −; for Behavior of gene caused by administration of chemical substance, Gene No. 5878: Unigene Rn.143213, defined direction −; for Behavior of gene caused by administration of chemical substance, Gene No. 1131: Unigene Rn.144946, defined direction −; for Behavior of gene caused by administration of chemical substance, Gene No. 1562: Unigene Rn.14744, defined direction −; for Behavior of gene caused by administration of chemical substance, Gene No. 1741: Unigene Rn.1647, defined direction −; for Behavior of gene caused by administration of chemical substance, Gene No. 893: Unigene Rn.164817, defined direction +; for Behavior of gene caused by administration of chemical substance, Gene No. 6026: Unigene Rn.167685, defined direction −; for Behavior of gene caused by administration of chemical substance, Gene No. 154: Unigene Rn.185941, defined direction −; for Behavior of gene caused by administration of chemical substance, Gene No. 1993: Unigene Rn.18728, defined direction −; for Behavior of gene caused by administration of chemical substance, Gene No. 813: Unigene Rn.201760, defined direction +; for Behavior of gene caused by administration of chemical substance, Gene No. 2494: Unigene Rn.23969, defined direction +; for Behavior of gene caused by administration of chemical substance, Gene No. 2546: Unigene Rn.24561, defined direction −; for Behavior of gene caused by administration of chemical substance, Gene No. 3776: Unigene Rn.43232, defined direction −; for Behavior of gene caused by administration of chemical substance, Gene No. 3929: Unigene Rn.4620, defined direction +; for Behavior of gene caused by administration of chemical substance, Gene No. 1119: Unigene Rn.9757, defined direction +; for Behavior of gene caused by administration of chemical substance, Gene No. 6742: Unigene Rn.9779, defined direction +; for Behavior of gene caused by administration of chemical substance, Gene No. 5634: Unigene Rn.9862, defined direction −; for Behavior of gene caused by administration of chemical substance, Gene No. 5726: (D), Unigene Rn.9939, defined direction −
How it was run: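 Male F344 SPF rats, 5 weeks old, four per group, dosed by oral gavage once daily for 28 days with test chemical or matched-volume solvent. Liver total RNA profiled on oligo-DNA microarray. Change ≥1.5-fold or ≤1/1.5 versus vehicle counted as significant if its direction matched that seen with other carcinogens.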

rodent = conditions: in vivo; cited from earlier work
liver = conditions: in vivo; cited from earlier work

CCN(CC)N=O [TS011, Diethylnitrosamine]
−: Behavior of gene caused by administration of chemical substance, Gene No. 2045 [1] | Behavior of gene caused by administration of chemical substance, Gene No. 2203 [1] | Behavior of gene caused by administration of chemical substance, Gene No. 725 [1] | Behavior of gene caused by administration of chemical substance, Gene No. 1163 [1] | Behavior of gene caused by administration of chemical substance, Gene No. 1334 [1] | Behavior of gene caused by administration of chemical substance, Gene No. 6620 [1] | Behavior of gene caused by administration of chemical substance, Gene No. 5878 [1] | Behavior of gene caused by administration of chemical substance, Gene No. 1131 [1] | Behavior of gene caused by administration of chemical substance, Gene No. 813 [1] | Behavior of gene caused by administration of chemical substance, Gene No. 3776 [1] | Behavior of gene caused by administration of chemical substance, Gene No. 3929 [1] | Behavior of gene caused by administration of chemical substance, Gene No. 1119 [1] | Behavior of gene caused by administration of chemical substance, Gene No. 6742 [1] | Behavior of gene caused by administration of chemical substance, Gene No. 5634 [1] | Behavior of gene caused by administration of chemical substance, Gene No. 5726 [1]
+: Behavior of gene caused by administration of chemical substance, Gene No. 4846 [1] | Behavior of gene caused by administration of chemical substance, Gene No. 4218 [1] | Behavior of gene caused by administration of chemical substance, Gene No. 2026 [1] | Behavior of gene caused by administration of chemical substance, Gene No. 6182 [1] | Behavior of gene caused by administration of chemical substance, Gene No. 5600 [1] | Behavior of gene caused by administration of chemical substance, Gene No. 1494 [1] | Behavior of gene caused by administration of chemical substance, Gene No. 533 [1] | Behavior of gene caused by administration of chemical substance, Gene No. 4973 [1] | Behavior of gene caused by administration of chemical substance, Gene No. 4095 [1] | Behavior of gene caused by administration of chemical substance, Gene No. 6303 [1] | Behavior of gene caused by administration of chemical substance, Gene No. 1562 [1] | Behavior of gene caused by administration of chemical substance, Gene No. 1741 [1] | Behavior of gene caused by administration of chemical substance, Gene No. 893 [1] | Behavior of gene caused by administration of chemical substance, Gene No. 6026 [1] | Behavior of gene caused by administration of chemical substance, Gene No. 154 [1] | Behavior of gene caused by administration of chemical substance, Gene No. 1993 [1] | Behavior of gene caused by administration of chemical substance, Gene No. 2494 [1] | Behavior of gene caused by administration of chemical substance, Gene No. 2546 [1]
C+: Carcinogenicity (rodent)
Cr+: Liver carcinogenicity (liver)

O=NN1CCOCC1 [TS014, N-Nitrosomorpholine]
+: Behavior of gene caused by administration of chemical substance, Gene No. 4846 [1] | Behavior of gene caused by administration of chemical substance, Gene No. 4218 [1] | Behavior of gene caused by administration of chemical substance, Gene No. 2026 [1] | Behavior of gene caused by administration of chemical substance, Gene No. 6182 [1] | Behavior of gene caused by administration of chemical substance, Gene No. 5600 [1] | Behavior of gene caused by administration of chemical substance, Gene No. 1494 [1] | Behavior of gene caused by administration of chemical substance, Gene No. 1163 [1] | Behavior of gene caused by administration of chemical substance, Gene No. 1993 [1] | Behavior of gene caused by administration of chemical substance, Gene No. 813 [1]
−: Behavior of gene caused by administration of chemical substance, Gene No. 2045 [1] | Behavior of gene caused by administration of chemical substance, Gene No. 2203 [1] | Behavior of gene caused by administration of chemical substance, Gene No. 533 [1] | Behavior of gene caused by administration of chemical substance, Gene No. 725 [1] | Behavior of gene caused by administration of chemical substance, Gene No. 4973 [1] | Behavior of gene caused by administration of chemical substance, Gene No. 4095 [1] | Behavior of gene caused by administration of chemical substance, Gene No. 1334 [1] | Behavior of gene caused by administration of chemical substance, Gene No. 6620 [1] | Behavior of gene caused by administration of chemical substance, Gene No. 6303 [1] | Behavior of gene caused by administration of chemical substance, Gene No. 5878 [1] | Behavior of gene caused by administration of chemical substance, Gene No. 1131 [1] | Behavior of gene caused by administration of chemical substance, Gene No. 1562 [1] | Behavior of gene caused by administration of chemical substance, Gene No. 1741 [1] | Behavior of gene caused by administration of chemical substance, Gene No. 893 [1] | Behavior of gene caused by administration of chemical substance, Gene No. 6026 [1] | Behavior of gene caused by administration of chemical substance, Gene No. 154 [1] | Behavior of gene caused by administration of chemical substance, Gene No. 2494 [1] | Behavior of gene caused by administration of chemical substance, Gene No. 2546 [1] | Behavior of gene caused by administration of chemical substance, Gene No. 3776 [1] | Behavior of gene caused by administration of chemical substance, Gene No. 3929 [1] | Behavior of gene caused by administration of chemical substance, Gene No. 1119 [1] | Behavior of gene caused by administration of chemical substance, Gene No. 6742 [1] | Behavior of gene caused by administration of chemical substance, Gene No. 5634 [1] | Behavior of gene caused by administration of chemical substance, Gene No. 5726 [1]
Cr+: Liver carcinogenicity (liver)
C+: Carcinogenicity (rodent)
